Source: US6436344B1, “Method of inactivating pathogens” (American National Red Cross, priority 1999, dated 2002)
Several values for one entry are separate records, joined by “and”; a condition that tells them apart may be missing. Equal values may be shown once. Read-outs that look alike come from different tables or passages of the source.

Tests used:
[1] = molecular target: T1, human coagulation Factor IX (Homo sapiens, UniProt P00740); settings: treatment with molecular iodine; cited from earlier work
T1 construct: highly-purified human coagulation Factor IX, a labile plasma clotting factor; from tissue

[2] = molecular target: T2, human coagulation Factor VIII (Homo sapiens, UniProt P00451); experiment: Preservation of Factor VIII clotting activity, one-stage APTT (Example 5); assay type: biochemical; settings: for FVIII u/mL after 37° C. incubation, 3 hours: 3 hours at 37° C.
T2 construct: The CFVIII product tested was ‘Antihemophilic Factor, Human, Method M, Solvent and Detergent Treated’ (American Red Cross); tissue American Red Cross; host or cells: human plasma (own knowledge: Method M is a plasma-derived, monoclonal-antibody-purified concentrate)

[3] = molecular target: T1, human coagulation Factor IX; experiment: Preservation of Factor IX clotting activity, one-stage APTT (Example 7); assay type: biochemical; settings: 0.01 M calcium chloride, pH 6.2
pseudorabies virus (PRV) = assay type: cell-based; settings: for Pseudorabies Virus Av. rate / Pseudorabies Virus Reduction Factor: pH 5.5, 4 hours at 37° C.
porcine parvovirus (PPV) [4] = experiment: Inactivation of PPV by CAA in the presence of Factor VIII (Example 6); assay type: cell-based
Protocol: (§1) Viral assays were performed by the TCID50 method as described by Miekka et al, HEMOPHILIA 4, 401-408 (1998). Target porcine kidney cells, PK-13 (ATCC CRC-6490), were seeded into 96-well microtiter plates and grown to 50-70% confluence. Five-fold serial dilutions (200 μL) of samples were prepared in cell culture medium and added to four wells each. Plates were incubated for 7 days at 37° C. in humidified 5% carbon dioxide. Cell layers were analyzed for cytopathic effect, and log10 viral titers were calculated by the method of Kärber, ARCH. Exp. PATHOL. PHARMAKOL., 162, 480-483 (1931). The average PPV reduction rate (log10/hour) was computed by regression analysis of the viral titers at each of the time points tested. Viral titers that had decreased to the assay limit were excluded from this calculation.
A stock solution of 100 mM CAA in water was neutralized to pH 7.0 and was added to CFVIII to give final CAA concentrations of 3 mM and 6 mM and final CFVIII concentration of 100 clotting units/mL. All samples were buffered at pH 5.5 with 0.02 M sodium acetate. PPV was spiked into the samples at 1:40 ratio. The samples were incubated for 4 hours at 37° C. The positive hold controls were acetate buffer or Factor VIII, spiked with PPV and incubated 4 hours at 37° C. Viral assays and cell culture techniques were performed as described in EXAMPLE 3. Viral reduction factors were calculated as the difference between the log10 titers of the non-incubated and 4-hour incubated samples.

porcine parvovirus (PPV) [5] = experiment: Porcine parvovirus inactivation by CAA, TCID50 titration on PK-13 cells (Example 3); assay type: cell-based, PPV strain NADL-2
Protocol: An aqueous solution of chloroacetaldehyde (Aldrich Chemical, Milwaukee, Wis., Product 31,727-6, Lot KS02106MR, 50% in water) was diluted to the desired mM concentrations (0.5, 1, 2 and 5 mM) in 0.05 M sodium acetate buffer, pH 5.5. The 2 mM and 5 mM CAA samples were also prepared in 2.5% IgG solution, buffered at pH 5.5 with sodium acetate. Positive hold controls contained 0.05 M sodium acetate buffer, pH 5.5, or acetate-buffered 2.5% IgG without CAA. Positive controls and test samples were spiked 1:40 with porcine parvovirus (ATCC VR-742, PPV strain NADL-2). Aliquots were removed for immediate viral assay and the remaining samples were incubated at 37° C. for 4, 7 and 22.5 hours and then assayed to determine viral titers.
as §1

[6] = Effect of pH 12, heat and thiosulfate on iodoacetaldehyde, GC-MS and NMR (Example 8); assay type: physicochemical
[7] = Relative amount of IAA and its hydrated form in water by NMR (Example 1C); assay type: physicochemical; settings: water solution, NMR estimate, 40° C.
Protocol: One-dimensional ^1H-NMR spectra were recorded on a Bruker DRX 500 spectrometer at 40° C. The signal for TSP was used as internal reference (δH=0.0 ppm). A sample was prepared by adding 50 μl of the solution purified by reverse phase chromatography (RPC) to 650 μl D2O and subsequently transferring the diluted sample to a 5 mm NMR tube. For the quantitative measurement, a solution of Sodium Trimethyl Silyl Propionic acid (TSP, 0.991 mg/ml) was prepared; and 10 μl of that solution was added to the sample. By comparing the integral of the methyl groups in TSP with the integral of the CH2-group in hydrated IAA, an estimate of the IAA concentration in the sample could be made. Iodoacetaldehyde is in equilibrium with its hydrated form in a water solution. An estimate based on NMR is that the hydrated form accounts for approximately 90% of the sample, and the aldehyde form approximately 10%. This equilibrium should be taken into account when calculating concentration of IAA in aqueous media.

porcine parvovirus (PPV) [8] = experiment: Porcine parvovirus inactivation by IAA, TCID50 titration on PK 15 cells (Example 2); assay type: cell-based, strain PPV 893/76; settings: for PPV Reduction Factor: 4 hours
Protocol: RPC-purified IAA was diluted to the desired μM concentrations in water or in 5% IgG solution (>98% pure, KABI, Stockholm, Sweden), and the pH was adjusted to 5.00 with 0.4 M sodium phosphate. […] The samples were then gel filtered through sterile PD 10 columns containing Sephadex G-25 (Amersham Pharmacia Biotech Uppsala, Sweden) equilibrated with 25 ml of cell culture medium. A sample (2 ml) was layered onto the column and the fall-through was discarded. Then 3.2 ml cell culture medium (3.2 ml) was added to the column and the first 0.5 mL of eluate was discarded. The remaining eluate was collected for viral assay. The resulting diluting factor was 1.48. Materials for viral assays were as follows. […] The cell supernatant was clarified by low speed centrifugation and filtered through 0.45 μm and 0.2 μm filters before storing at -70° C. in aliquots. The target cells for titration of PPV were porcine kidney cell line PK 15 (ATCC CCL-33). The cells were cultivated according to conventional cell culture procedures in EMEM with non-essential amino acids (SVA, Uppsala, Sweden), supplemented with 120 μg/ml of penicillin G, 100 μg/ml of streptomycin sulfate and 5% fetal calf serum. Cells were seeded in 96 well microtiter plates (Nunc). Viral assays were performed by a TCID50 method. The original virus stock (positive control sample) and the test samples were serially diluted ten-fold in cell culture medium shortly after sampling. Aliquots (50 μl) of each dilution were added to eight wells of the 96-well microtiter plates. […] After incubation for 7 days at 37° C. in a humidified atmosphere of 5% CO2, the cells were rinsed in physiological saline and fixed in 80% acetone for 30 minutes at -20° C., after which the fixation fluid was removed and the plates were dried at 37° C. Virus infected cells were visualized by an immunoperoxidase method (Jensen […]. 22 (1981) 85-98; […]., RECENT ADVANCES IN VIRUS DIAGNOSTICS, McNutly and […]. (1984) 37-46; Saunders G. C., Am. J. VET. RES. 38 (1977) 21-25). […] The cells were then washed twice for five minutes with wash fluid and once with physiological saline. Peroxidase-conjugated rabbit anti-mouse IgG P 2060 (Dakopatts, Denmark) was added to the cells. […] Wells with viral foci were counted using an inverted microscope and the tissue culture infectious dose giving a 50% end point (TCID50) was calculated for each sample. […] 10^R=(V'×10^a')/(V''×10^a'')

[9] = 5 mM CAA, incubation for 4 hours
[10] = CAA 3 mM, Factor VIII (AHF-M) 100 clotting units/mL, pH 5.5, 4 hours at 37° C.
[11] = CAA 3 mM, buffer pH 5.5, 4 hours at 37° C.
[12] = CAA 6 mM, Factor VIII (AHF-M) 100 clotting units/mL, pH 5.5, 4 hours at 37° C.
[13] = CAA 6 mM, buffer pH 5.5, 4 hours at 37° C.
[14] = CAA 3 and 6 mM, with and without Factor VIII, 4 hours

T2 sequence (P00451 20-1667 limits assumed): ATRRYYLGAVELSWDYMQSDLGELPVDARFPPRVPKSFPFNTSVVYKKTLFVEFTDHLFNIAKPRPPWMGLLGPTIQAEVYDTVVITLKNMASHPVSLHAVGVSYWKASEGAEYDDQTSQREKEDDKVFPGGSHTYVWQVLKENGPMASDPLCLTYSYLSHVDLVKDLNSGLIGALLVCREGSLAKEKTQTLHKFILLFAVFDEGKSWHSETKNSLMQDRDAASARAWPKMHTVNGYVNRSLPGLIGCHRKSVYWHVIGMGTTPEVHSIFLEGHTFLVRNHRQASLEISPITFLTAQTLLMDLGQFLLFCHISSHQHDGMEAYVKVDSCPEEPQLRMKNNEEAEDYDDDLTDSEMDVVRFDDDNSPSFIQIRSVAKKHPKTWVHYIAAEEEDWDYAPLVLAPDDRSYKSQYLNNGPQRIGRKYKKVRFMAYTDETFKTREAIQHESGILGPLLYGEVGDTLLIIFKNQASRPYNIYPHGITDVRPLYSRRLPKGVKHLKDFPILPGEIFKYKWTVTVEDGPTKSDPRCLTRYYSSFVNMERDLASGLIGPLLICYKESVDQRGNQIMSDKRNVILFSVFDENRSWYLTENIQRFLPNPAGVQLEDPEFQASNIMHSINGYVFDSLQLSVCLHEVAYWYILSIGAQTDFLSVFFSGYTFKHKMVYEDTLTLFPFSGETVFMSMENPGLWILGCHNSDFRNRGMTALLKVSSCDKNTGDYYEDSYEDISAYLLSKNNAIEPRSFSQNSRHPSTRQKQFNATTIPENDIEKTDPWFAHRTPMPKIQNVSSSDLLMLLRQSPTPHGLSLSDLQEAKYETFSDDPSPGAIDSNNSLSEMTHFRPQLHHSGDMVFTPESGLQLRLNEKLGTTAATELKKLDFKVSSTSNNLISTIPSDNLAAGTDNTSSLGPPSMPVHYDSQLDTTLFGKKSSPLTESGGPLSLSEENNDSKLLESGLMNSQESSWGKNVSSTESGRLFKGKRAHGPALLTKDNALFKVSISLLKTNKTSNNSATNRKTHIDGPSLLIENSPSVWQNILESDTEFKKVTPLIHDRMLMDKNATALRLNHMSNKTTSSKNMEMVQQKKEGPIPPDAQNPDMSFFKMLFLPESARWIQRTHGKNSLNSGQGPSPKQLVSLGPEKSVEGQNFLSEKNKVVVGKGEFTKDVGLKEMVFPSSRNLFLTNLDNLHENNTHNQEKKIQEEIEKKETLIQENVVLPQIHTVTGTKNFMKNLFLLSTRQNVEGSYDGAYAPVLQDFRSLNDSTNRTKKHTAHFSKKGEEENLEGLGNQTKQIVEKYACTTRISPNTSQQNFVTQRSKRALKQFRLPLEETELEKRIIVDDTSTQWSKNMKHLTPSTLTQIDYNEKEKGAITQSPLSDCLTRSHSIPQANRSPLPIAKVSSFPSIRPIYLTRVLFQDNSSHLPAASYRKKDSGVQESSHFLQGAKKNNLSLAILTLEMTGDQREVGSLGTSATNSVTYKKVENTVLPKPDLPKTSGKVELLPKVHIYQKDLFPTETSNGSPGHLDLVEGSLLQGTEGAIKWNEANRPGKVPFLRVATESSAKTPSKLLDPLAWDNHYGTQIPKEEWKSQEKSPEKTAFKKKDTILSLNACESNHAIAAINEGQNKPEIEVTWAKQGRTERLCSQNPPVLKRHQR
T2 sequence (P00451 1668-2351 limits assumed): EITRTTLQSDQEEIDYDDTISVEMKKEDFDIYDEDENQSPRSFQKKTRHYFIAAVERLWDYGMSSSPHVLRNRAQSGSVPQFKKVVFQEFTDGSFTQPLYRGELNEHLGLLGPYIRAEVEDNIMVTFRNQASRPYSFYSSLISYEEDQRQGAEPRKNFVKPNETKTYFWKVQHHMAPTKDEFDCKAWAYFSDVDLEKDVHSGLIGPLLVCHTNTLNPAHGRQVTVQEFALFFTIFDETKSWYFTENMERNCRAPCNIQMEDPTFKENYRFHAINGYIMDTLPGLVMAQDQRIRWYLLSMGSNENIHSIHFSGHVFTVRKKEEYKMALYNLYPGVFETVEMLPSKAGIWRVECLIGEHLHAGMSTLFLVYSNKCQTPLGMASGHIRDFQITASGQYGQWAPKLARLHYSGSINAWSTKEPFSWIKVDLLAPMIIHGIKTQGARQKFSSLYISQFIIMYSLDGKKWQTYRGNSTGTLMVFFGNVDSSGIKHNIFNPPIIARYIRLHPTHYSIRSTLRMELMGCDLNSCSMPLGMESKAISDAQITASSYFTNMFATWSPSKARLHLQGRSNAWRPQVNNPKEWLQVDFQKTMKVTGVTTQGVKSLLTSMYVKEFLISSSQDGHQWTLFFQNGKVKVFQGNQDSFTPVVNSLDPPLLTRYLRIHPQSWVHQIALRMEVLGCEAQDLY
T1 sequence (P00740 47-461): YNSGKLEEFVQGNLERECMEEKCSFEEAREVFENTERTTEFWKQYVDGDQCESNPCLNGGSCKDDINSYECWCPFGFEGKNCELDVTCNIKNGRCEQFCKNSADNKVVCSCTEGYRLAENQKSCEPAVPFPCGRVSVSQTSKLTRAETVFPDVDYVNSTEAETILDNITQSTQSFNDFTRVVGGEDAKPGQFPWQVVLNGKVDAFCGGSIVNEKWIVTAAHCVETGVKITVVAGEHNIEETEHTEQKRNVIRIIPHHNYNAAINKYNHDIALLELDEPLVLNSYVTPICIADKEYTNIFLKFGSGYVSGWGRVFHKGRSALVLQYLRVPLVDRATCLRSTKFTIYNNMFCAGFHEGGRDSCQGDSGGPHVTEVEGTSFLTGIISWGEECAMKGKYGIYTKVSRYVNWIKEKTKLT

II [molecular iodine]
effect on Factor IX [1]: completely inactivate

O=CCCl [CAA, Chloroacetaldehyde]
FVIII u/mL after 37° C. incubation, 0 hour ([2]; CAA 4.2 mM): 121 u/mL and 95 u/mL
FVIII u/mL after 37° C. incubation, 0 hour ([2]; CAA 8.5 mM): 88 u/mL and 109 u/mL
FVIII u/mL after 37° C. incubation, 3 hours ([2]; CAA 8.5 mM): 105 u/mL and 117 u/mL
FVIII u/mL after 37° C. incubation, 0 hour ([2]; CAA 12.7 mM): 89 u/mL and 106 u/mL
FVIII u/mL after 37° C. incubation, 3 hours ([2]; CAA 12.7 mM): 91 u/mL and 108 u/mL
% of initial clotting activity remaining after 37° C. incubation ([3]; CFIX-M + 1 mM CAA, 0 hour): 95.2%
% of initial clotting activity remaining after 37° C. incubation ([3]; CFIX-M + 1 mM CAA, 4 hour): 93.9%
% of initial clotting activity remaining after 37° C. incubation ([3]; CFIX-M + 1 mM CAA, 20 hour): 100.3%
% of initial clotting activity remaining after 37° C. incubation ([3]; CFIX-M + 5 mM CAA, 0 hour): 97.7%
% of initial clotting activity remaining after 37° C. incubation ([3]; CFIX-M + 5 mM CAA, 4 hour): 100.6%
% of initial clotting activity remaining after 37° C. incubation ([3]; CFIX-M + 5 mM CAA, 20 hour): 89.1%
Pseudorabies Virus Av. rate (pseudorabies virus (PRV); 2 mM): 0.66 log10/hour
Pseudorabies Virus Reduction Factor (pseudorabies virus (PRV); 2 mM): 2.10 log10/4 hours
pseudorabies virus inactivated (pseudorabies virus (PRV); [9]): ≥ 3.2 log10
Pseudorabies Virus Av. rate (pseudorabies virus (PRV); 5 mM): ≧0.79 log10/hour
Pseudorabies Virus Reduction Factor (pseudorabies virus (PRV); 5 mM): ≧3.15 log10/4 hours
PPV Average rate (porcine parvovirus (PPV) [4]; [10]): ≧0.61 Log10/hour
PPV Reduction Factor (porcine parvovirus (PPV) [4]; [10]): ≧2.44 Log10/4 hours
PPV Average rate (porcine parvovirus (PPV) [4]; [11]): ≧0.57 Log10/hour
PPV Reduction Factor (porcine parvovirus (PPV) [4]; [11]): ≧2.27 Log10/4 hours
PPV Average rate (porcine parvovirus (PPV) [4]; [12]): ≧0.52 Log10/hour
PPV Reduction Factor (porcine parvovirus (PPV) [4]; [12]): ≧2.09 Log10/4 hours
PPV Average rate (porcine parvovirus (PPV) [4]; [13]): ≧0.43 Log10/hour
PPV Reduction Factor (porcine parvovirus (PPV) [4]; [13]): ≧1.75 Log10/4 hours
PPV reduction factors (limited by assay sensitivity) (porcine parvovirus (PPV) [4]; [14]): ≥ 2 log10/4 hours
PPV reduction rate (limited by assay sensitivity) (porcine parvovirus (PPV) [4]; [14]): ≥ 0.5 log10/hour
PPV inactivation rate (porcine parvovirus (PPV) [5]; 2 mM CAA): ~0.6 log10/hour
porcine parvovirus inactivated (porcine parvovirus (PPV) [5]; [9]): 3.2 -4 log10
porcine parvovirus inactivated (porcine parvovirus (PPV) [5]; 4-hour treatment with 5 mM CAA): ≥ 3.6 logs
Average PPV Reduction (porcine parvovirus (PPV) [5]; CAA 0.5 mM (total), buffer, pH 5.40, 37° C.): 0.16 Log10/hour
Average PPV Reduction (porcine parvovirus (PPV) [5]; CAA 1 mM (total), buffer, pH 5.40, 37° C.): 0.26 Log10/hour
Average PPV Reduction (porcine parvovirus (PPV) [5]; CAA 2 mM (total), 2.5% IgG, pH 5.36, 37° C.): 0.61 Log10/hour
Average PPV Reduction (porcine parvovirus (PPV) [5]; CAA 2 mM (total), buffer, pH 5.50, 37° C.): 0.48 Log10/hour
Average PPV Reduction (porcine parvovirus (PPV) [5]; CAA 5 mM (total), 2.5% IgG, pH 5.50, 37° C.): ≧0.79 Log10/hour
concentration effective at inactivating pathogens (as low as) (porcine parvovirus (PPV) [5]; aqueous solutions of chloroacetaldehyde): about 1.0 mM

O=CCI [IAA, Iodoacetaldehyde]
Effect on Iodoacetaldehyde, Change ([6]; 80° C. (20 hours)): Degraded
Effect on Iodoacetaldehyde, Change ([6]; Sodium thiosulfate, 2-20 mM): Degraded
Effect on Iodoacetaldehyde, Change ([6]; pH 12 (0.5 hour)): Degraded
aldehyde form, share of the sample [7]: approximately 10%
hydrated form, share of the sample [7]: approximately 90%
potency relative to CAA (PPV inactivation) (porcine parvovirus (PPV) [8]; 180 μM IAA v. 2 mM CAA at the same rate): over 10 times
PPV Reduction Factor (porcine parvovirus (PPV) [8]; IAA 36 μM (hydrated form), 5% IgG, pH 4.64, 37° C.): ≦0.7 Log10/4 hours
PPV Reduction Factor (porcine parvovirus (PPV) [8]; IAA 36 μM (hydrated form), buffer, pH 4.96, 37° C.): 0.8 Log10/4 hours
PPV Reduction Factor (porcine parvovirus (PPV) [8]; IAA 45 μM (hydrated form), 5% IgG, pH 4.64, 37° C.): 0.9 Log10/4 hours
PPV Reduction Factor (porcine parvovirus (PPV) [8]; IAA 45 μM (hydrated form), buffer, pH 4.96, 37° C.): 1.1 Log10/4 hours
PPV Reduction Factor (porcine parvovirus (PPV) [8]; IAA 60 μM (hydrated form), 5% IgG, pH 4.64, 37° C.): 1.2 Log10/4 hours
PPV Reduction Factor (porcine parvovirus (PPV) [8]; IAA 60 μM (hydrated form), buffer, pH 4.96, 37° C.): 1.1 Log10/4 hours
PPV Reduction Factor (porcine parvovirus (PPV) [8]; IAA 90 μM (hydrated form), 5% IgG, pH 4.62, 37° C.): 1.4 Log10/4 hours
PPV Reduction Factor (porcine parvovirus (PPV) [8]; IAA 90 μM (hydrated form), buffer, pH 4.95, 37° C.): 1.7 Log10/4 hours
PPV inactivation rate (porcine parvovirus (PPV) [8]; IAA 180 μM): ~0.6 log10/hour
PPV Reduction Factor (porcine parvovirus (PPV) [8]; IAA 180 μM (hydrated form), 5% IgG, pH 4.61, 37° C.): 2.5 Log10/4 hours
PPV Reduction Factor (porcine parvovirus (PPV) [8]; IAA 180 μM (hydrated form), buffer, pH 4.93, 37° C.): 2.7 Log10/4 hours
PPV Reduction Factor (porcine parvovirus (PPV) [8]; IAA 600 μM (hydrated form), 5% IgG, pH 4.56, 37° C.): ≧4.7 Log10/4 hours
PPV Reduction Factor (porcine parvovirus (PPV) [8]; IAA 600 μM (hydrated form), buffer, pH 4.84, 37° C.): ≧4.7 Log10/4 hours
concentration effective at inactivating pathogens, e.g., porcine parvovirus (as low as) (porcine parvovirus (PPV) [8]; IAA hydrate): 50 µM
